Results published in US5688992A, “O-malonyltryrosyl compounds, O-malonyltryrosyl compound-containing peptides, and use thereof” (The United States of America as represented by the …, priority 1995, dated 1997).
Where two headings read alike, the source gives them in different places. One block for each compound: values may come before it. Square brackets hold non-standard residues; d marks the D form. Peptide text beside a SMILES is read from it. * marks the point of attachment. F2Pmp = N[C@@H](Cc1ccc(C(F)(F)P(=O)(O)O)cc1)C(=O)O; pY = N[C@@H](Cc1ccc(OP(=O)(O)O)cc1)C(=O)O; L‑OMT = L-O-malonyltyrosine; X1 = O=C(O)C(C(=O)O)*

Key:
recombinant PTP 1B = target: T1, recombinant PTP 1B (Homo sapiens, UniProt P18031); test: Insulin receptor dephosphorylation by recombinant PTP 1B; assay type: biochemical; conditions: 32P-labeled autophosphorylated insulin receptor as substrate; read-out: inhibition constant / IC50 against PTP 1B dephosphorylation of insulin receptor
T1 sequence (P18031 1-435): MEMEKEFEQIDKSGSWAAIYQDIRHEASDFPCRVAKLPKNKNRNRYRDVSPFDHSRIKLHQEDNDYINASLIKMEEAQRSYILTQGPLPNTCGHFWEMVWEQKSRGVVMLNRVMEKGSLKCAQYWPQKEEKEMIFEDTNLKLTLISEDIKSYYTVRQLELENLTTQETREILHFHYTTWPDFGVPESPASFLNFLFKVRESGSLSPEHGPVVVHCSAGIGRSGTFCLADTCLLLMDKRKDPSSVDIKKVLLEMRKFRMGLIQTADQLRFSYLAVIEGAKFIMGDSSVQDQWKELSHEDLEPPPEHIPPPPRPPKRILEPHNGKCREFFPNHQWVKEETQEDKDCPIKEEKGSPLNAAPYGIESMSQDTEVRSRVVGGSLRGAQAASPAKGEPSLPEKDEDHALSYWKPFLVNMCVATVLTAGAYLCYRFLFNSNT
Method: WGA-purified human insulin receptors were autophosphorylated with [γ-^32 P]ATP as previously described (Liotta, A.S., et al., J. Biol. Chem. 269:22996-23001 (1994)), and this ^32 P-labeled insulin receptor was used as substrate for the assay of PTP 1B activity, essentially following the method described by Burke et al. (Burke, T. R. Jr., Biochem, Biophys. Res. Commun. 204:129-134 (1994)). In brief, ^32 P-labeled autophosphorylated insulin receptors (10 μg/ml) were incubated with 0.5 μg/ml recombinant PTP 1B at 22° C. in a 100 μl reaction containing 50 mM HEPES, pH 7.5, 0.1 mg/ml BSA, 5 mM DTT, 5 mM EDTA, 0.05% Triton X-100, in the absence or presence of various peptides at the indicated concentrations. […] The ^32 P remaining in the 95 kDa insulin receptor β-subunit was quantified by Betagen counting of the fixed and dried gels.
The peptide Ac-D-A-D-E-OMT-L-amide (SEQ. ID. NO. 8) was then examined for inhibitor potency against PTB-1B dephosphorylation of phosphorylated insulin receptor. […] The ^32 P remaining in the 95 kDa insulin receptor β-subunit was quantified by Betagen counting of the fixed and dried gels. […]

Grb2 SH2 domain = target: T2, Grb2 SH2 domain (Homo sapiens, UniProt P62993); test: SH2 domain competition binding assay, Grb2 SH2
T2 construct: against the Grb2 SH2 domain construct

[1] = target: T3, N-terminal SH-PTP2 SH2 domain (Homo sapiens, UniProt Q06124); conditions: X = pTyr or L-F2Pmp; previously reported (Xiao 1994); cited from earlier work
T3 sequence (Q06124 6-102 limits assumed): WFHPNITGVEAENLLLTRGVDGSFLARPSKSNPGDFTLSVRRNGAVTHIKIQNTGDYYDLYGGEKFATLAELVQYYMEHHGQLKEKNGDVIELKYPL

[2] = tested on: SH-PTP2 mediated mitogenic signaling in rat 1 fibroblasts; conditions: Xiao 1994; cited from earlier work
[3] = target: T3, N-terminal SH-PTP2 SH2 domain; test: SH2 domain competition binding assay, SH-PTP2 N-terminal SH2; conditions: X = L-OMT; read-out: IC50 ± S.E., SH-PTP2 (N-terminal) SH2 domain
Src SH2 domain = target: T4, Src SH2 domain (Homo sapiens, UniProt P12931); test: SH2 domain competition binding assay, Src SH2; conditions: X = L-OMT; GST/SH2 fusion vs [125I] hmT pY324 phosphopeptide; read-out: IC50 ± S.E., Src SH2 domain
T4 construct: the Src SH2 domain was paired with hmt pY324
Method: (§1) Details of the […] domain competition assay are described by Piccione, E., et al., Biochemistry 32:3197-3202 (1993). Briefly, four distinct assays were used to determine relative SH2 domain affinities for pTyr analogues vs. high affinity phosphopeptide ligands. In each assay a glutathione S-transferase (GST)/SH2 domain fusion protein was paired with an appropriate high-affinity [^125 I]Bolton-Hunter radiolabeled phosphopeptide, and varying concentrations of unlabeled peptides were added as competitors. The C-terminal SH2 domain of PI 3-kinase p85 was paired with IRS-1pY628, GNGDpYMPMSPK (SEQ ID NO. 5) (See Piccione, E., et al., Biochemistry 32:3197-3202 (1993)), the Src SH2 domain was paired with hmt pY324, KEPQpYEEIPIYL (SEQ ID NO. 6) (See Payne, G., et al., Proc. Natl. Acad. Sci. USA 90:4902-4906 (1993), the PLCγ-C SH2 domain was paired with PDGF pY1021, DNDpYIIPLPDPK (SEQ ID NO. 7) (See Piccione, E., et al., Biochemistry 32:3197-3202 (1993)), and the Lck SH2 domain was paired with the hmTpY324 sequence similar to assays conducted on the Src SH2 domain. An underline denotes the position of the [^125 I]Bolton-Hunter modified lysine. […] Following centrifugation for 5 min at 12,000 g, supematant solutions were removed by aspiration and [^125 I]radioactivity associated with the unwashed pellets was determined with a γ-counter.

[4] = target: C-terminal SH2 domain of PI 3-kinase p85 (Homo sapiens, UniProt P27986); test: SH2 domain competition binding assay, PI 3-kinase p85 C-terminal SH2; conditions: X = L-OMT; GST/SH2 fusion vs [125I] IRS-1 pY628 phosphopeptide; read-out: IC50 ± S.E., p85 (C-terminal) SH2 domain
Method: as §1

IC50 (recombinant PTP 1B): ~10 µM
Compound: CC(=O)N[C@@H](CC(=O)O)C(=O)N[C@@H](C)C(=O)N[C@@H](CC(=O)O)C(=O)N[C@@H](CCC(=O)O)C(=O)N[C@@H](Cc1ccc(OC(C(=O)O)C(=O)O)cc1)C(=O)N[C@@H](CC(C)C)C(N)=O [Ac-D-A-D-E-OMT-L-amide, Ac-Asp-Ala-Asp-Glu-[L-OMT]-Leu-amide] (Ac-DADEY(X1)L-NH2)

activity in Grb2 binding assay (Grb2 SH2 domain): essentially inactive
Compound: CC[C@H](C)[C@H](NC(=O)[C@H](CC(N)=O)NC(=O)[C@@H](NC(=O)[C@H](Cc1ccc(OC(C(=O)O)C(=O)O)cc1)NC(=O)[C@H](CC(N)=O)NC(C)=O)C(C)C)C(=O)N[C@@H](CCC(=O)O)C(N)=O [peptide no. 8, Ac-Asn-[L-OMT]-Val-Asn-Ile-Glu-amide] (Ac-NY(X1)VNIE-NH2)

Compound: 10 (X = pTyr): Ac-L-N-X-I-D-L-D-L-V-amide with X = pTyr in place of L-OMT (Ac-LN[pY]IDLDLV-NH2; SMILES CC[C@H](C)[C@H](NC(=O)[C@H](Cc1ccc(OP(=O)(O)O)cc1)NC(=O)[C@H](CC(N)=O)NC(=O)[C@H](CC(C)C)NC(C)=O)C(=O)N[C@@H](CC(=O)O)C(=O)N[C@@H](CC(C)C)C(=O)N[C@@H](CC(=O)O)C(=O)N[C@@H](CC(C)C)C(=O)N[C@H](C(N)=O)C(C)C)
IC50 [1]: 4 µM

Compound: 10 (X = L-F2Pmp): Ac-L-N-X-I-D-L-D-L-V-amide with X = L-F2Pmp in place of L-OMT (Ac-LN[F2Pmp]IDLDLV-NH2; SMILES CC[C@H](C)[C@H](NC(=O)[C@H](Cc1ccc(C(F)(F)P(=O)(O)O)cc1)NC(=O)[C@H](CC(N)=O)NC(=O)[C@H](CC(C)C)NC(C)=O)C(=O)N[C@@H](CC(=O)O)C(=O)N[C@@H](CC(C)C)C(=O)N[C@@H](CC(=O)O)C(=O)N[C@@H](CC(C)C)C(=O)N[C@H](C(N)=O)C(C)C)
IC50 [1]: 23 µM
effect on SH-PTP2 mediated mitogenic signaling [2]: block SH-PTP2 mediated mitogenic signaling

IC50 [3]: 22 µM
Compound: Ac-Leu-Asn-[L-OMT]-Ile-Asp-Leu-Asp-Leu-Val-amide ({Ac-Leu-Asn-L‑OMT}-IDLDLV-NH2) [peptide no. 9]

IC50 (Src SH2 domain): > 200 µM
Compound: CC[C@H](C)[C@H](NC(=O)[C@H](CCC(=O)O)NC(=O)[C@H](CCC(=O)O)NC(=O)[C@H](Cc1ccc(OC(C(=O)O)C(=O)O)cc1)NC(=O)[C@H](CCC(N)=O)NC(C)=O)C(=O)N1CCC[C@H]1C(N)=O [peptide no. 7, Ac-Gln-[L-OMT]-Glu-Glu-Ile-Pro-amide] (Ac-QY(X1)EEIP-NH2)

IC50 [4]: 14.2 µM
Compound: CSCC[C@H](NC(=O)[C@@H]1CCCN1C(=O)[C@@H](NC(=O)[C@H](Cc1ccc(OC(C(=O)O)C(=O)O)cc1)NC(=O)[C@H](CC(=O)O)NC(C)=O)C(C)C)C(=O)N[C@@H](CC(C)C)C(N)=O [peptide no. 6, Ac-Asp-[L-OMT]-Val-Pro-Met-Leu-amide] (Ac-DY(X1)VPML-NH2)
